# Assay results taken from publication PMC9699089 (Pathogens, 2022).
# Like-named read-outs stand apart in the source and are kept apart here.
# Key:
# [1] = tested on: human telomeric sequence F21T G-quadruplex; assay: FRET melting assay, F21T; format: binding; settings: compound 2 μM, oligonucleotide 0.2 μM, K+ conditions
# Procedure: (§1) These were performed with dual-labeled oligonucleotides mimicking the Plasmodium telomeric sequences FPf1T [FAM-5′(GGGTTTA)3-GGG3′-TAMRA] and FPf8T [FAM-5′(GGGTTCA)3GGG3′-TAMRA], the Trypanosoma 9 and 11 chromosomic sequence FTrypBT (also named FEBR1T) [FAM-5′[…]3′-TAMRA], the human telomeric sequence F21T [FAM-(GGGTTA)3-GGG3′-TAMRA] and the human duplex sequence FdxT [FAM5′-[…]-hexaethyleneglycol-[…]3′-TAMRA] [27, 31, 47]. The oligonucleotides were pre-folded in 10 mM lithium cacodylate buffer (pH 7.2), with 10 mM KCl and 90 mM LiCl (K^+ condition). The FAM emissions were recorded at 516 nm using a 492-nm excitation wavelength in the absence and presence of a single compound as a function of temperature (25 to 95 °C) in 96-well microplates using a Stratagene MX3000P real-time PCR device at a rate of 1 °C∙min-1. Data were normalized between 0 and 1, and the required temperature for half-denaturation of oligonucleotides corresponding to the emission value of 0.5 was taken as the Tm. Each experiment was performed in duplicate with 0.2 µM of labeled oligonucleotide and 2 µM of compound under K^+ condition. For each compound, three independent experiments were carried out.
# [2] = Cytotoxicity evaluation, MTT assay; format: cell-based, human; settings: human
# Procedure: These cells are a commonly used human hepatocarcinoma-derived cell line that has characteristics similar to those of primary hepatocytes. These cells express many hepatocyte-specific metabolic enzymes, thus enabling the cytotoxicity of tested product metabolites to be evaluated. […] Duplicate assays were performed for each sample. Each well was microscopically examined for precipitate formation before the medium was aspirated from the wells. After aspiration, 100 µL of MTT solution (0.5 mg/mL in medium without FCS) were then added to each well. […] The MTT solution was removed, and DMSO (100 µL) was added to dissolve the resulting blue formazan crystals. Plates were shaken vigorously (300 rpm) for 5 min. The absorbance was measured at 570 nm with 630 nm as reference wavelength in a BIO-TEK ELx808 Absorbance Microplate Reader. DMSO was used as blank and doxorubicin (Sigma Aldrich) as positive control. Cell viability was calculated as percentage of control (cells incubated without compound). The CC50 was determined from the dose-response curve using TableCurve 2D V5.0 software (Systat Software, Palo Alto, CA, USA).
# [3] = tested on: Plasmodium falciparum CQ-sensitive strain 3D7; assay: In vitro antiplasmodial activity, SYBR Green I fluorescence-based method, strain 3D7; format: cell-based; settings: CQ-sensitive strain 3D7, 48 h incubation, mean of three independent experiments, read-out: P. falciparum Strains IC50 Values 3D7
# Outline: (§2)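 P. falciparum cultured in human erythrocytes in RPMI with 0.5% Albumax I, hypoxanthine and gentamicin at 37 °C in a candle jar. Compounds tested from 39 nM to 40 µM for 48 h. Parasite DNA quantified by SYBR Green I fluorescence in saponin/Triton lysis buffer (ex 485/em 535 nm).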
# [4] = target: G4-forming oligonucleotide Pf1 (d[(G3T3A)3G3]); assay: Native electrospray mass spectrometry, Pf1; format: binding, Plasmodium; parameters: key to Kd Pf1, stoichiometry 1 (Kd1) / Kd Pf1, stoichiometry 2 (Kd2): n.b.: no binding detected; <LOQ: binding detected but below limit of quantitation; settings: 100 mM TMAA, 1 mM KCl
# Procedure: (§3) Oligonucleotides were purchased in the lyophilized form from Eurogentec (RP-cartridge purification), and dissolved at 1 mM in pure water. TMAA (1 M) was purchased from Santa Cruz Biotechnology and potassium chloride (purity > 99.99%) from Sigma Aldrich (Sigma Aldrich, Saint-Quentin-Fallavier, France). The sample solutions contained 10 µM oligonucleotide and 10 (for CD only) or 20 µM ligand, in a 100 mM TMAA, 1mM KCl buffer. The solutions were incubated overnight at 4 °C before analysis.
# (§4) The sample solutions were injected at a 10 µM strand concentration on an Agilent 6560 DTIMS-Q-TOF instrument (Agilent Technologies, Santa Clara, CA, USA), equipped with a dual-ESI source operated in the negative ion mode in soft conditions. The following parameters were used: fragmentor 320 V, trap fill time 1000 µs, trap release time 200 µs, trap entrance grid delta 2 V. The drift tube was filled with helium and the pressure was fixed at 3.89 ± 0.01 Torr (measured by a capacitance diaphragm gauge CDG-500, Agilent Technologies).
# (§5) The MS data were extracted using the IM-MS Browser (v. B.08.00; Agilent Technologies). The peak area intensity of each species at the 5- charge state was extracted from their corresponding m/z range (encompassing potassium adducts), and baseline subtracted. The concentrations of all species (free DNA, free ligands, and complexes) and corresponding dissociation constants were determined as previously described.
# [5] = target: human telomeric sequence 24TTG; assay: Native electrospray mass spectrometry, 24TTG; format: binding; parameters: key to Kd 24TTG, stoichiometry 1 (Kd1): n.b.: no binding detected; <LOQ: binding detected but below limit of quantitation; settings: 100 mM TMAA, 1 mM KCl
# Procedure: as §3, §4, §5
# [6] = tested on: Plasmodium falciparum CQ-resistant strain W2; assay: In vitro antiplasmodial activity, SYBR Green I fluorescence-based method, strain W2; format: cell-based; settings: CQ-resistant strain W2, 48 h incubation, mean of three independent experiments, read-out: P. falciparum Strains IC50 Values W2
# Outline: as §2
# [7] = tested on: Plasmodium telomeric sequence FPf8T G-quadruplex; assay: FRET melting assay, FPf8T; format: binding, Plasmodium falciparum; settings: compound 2 μM, oligonucleotide 0.2 μM, K+ conditions
# Procedure: as §1
# [8] = 1:1 ligand:DNA complex, read-out: Kd Pf1, stoichiometry 1 (Kd1)
# [9] = 1:1 ligand:DNA complex, read-out: Kd 24TTG, stoichiometry 1 (Kd1)
# [10] = 2:1 ligand:DNA complex, read-out: Kd 24TTG, stoichiometry 2 (Kd2)
# [11] = 2:1 ligand:DNA complex, read-out: Kd Pf1, stoichiometry 2 (Kd2)
Compound,ΔTm F21T [1] [°C],CC50 at 72 h [2] [µM],IC50 [3] [µM],"Kd [4, 8] [µM]","Kd Pf1, stoichiometry 2 (Kd2) ([4]; 2:1 ligand:DNA complex)","Kd [5, 9] [µM]","Kd [5, 10] [µM]",IC50 [6] [µM],ΔTm FPf8T [7] [°C],"Kd [4, 11] [µM]","Kd Pf1, stoichiometry 1 (Kd1) ([4]; 1:1 ligand:DNA complex)","Kd 24TTG, stoichiometry 1 (Kd1) ([5]; 1:1 ligand:DNA complex)"
"CN(C)CCCCNCc1cc(-c2ccccc2)c2ccc3c(-c4ccccc4)cc(CNCCCCN(C)C)nc3c2n1 [Compound 1c, 2,9-Bis[(4-dimethylaminobutyl)aminomethyl]-4,7-diphenyl-1,10-phenanthroline]",13.2,10.4 ± 0.7,10.3 ± 2.13,23,n.b.,44,28,0.03 ± 0.003,10.2,,,
"CN(C)CCCCCNCc1cc(-c2ccccc2)c2ccc3c(-c4ccccc4)cc(CNCCCCCN(C)C)nc3c2n1 [Compound 1d, 2,9-Bis[(5-dimethylaminopentyl)aminomethyl]-4,7-diphenyl-1,10-phenanthroline]",18.1,3.35 ± 0.33,4.79 ± 0.5,8,,38,62,3.51 ± 0.52,20.5,24,,
c1ccc(-c2cc(CNCCCN3CCCC3)nc3c2ccc2c(-c4ccccc4)cc(CNCCCN4CCCC4)nc23)cc1 [Compound 1l],14.5,15.2 ± 1.56,9.91 ± 1.73,10,,34,18,0.03 ± 0.01,14.2,37,,
c1ccc(-c2cc(CNCCc3ccccn3)nc3c2ccc2c(-c4ccccc4)cc(CNCCc4ccccn4)nc23)cc1 [Compound 1m],1.0,4.34 ± 0.31,0.47 ± 0.12,,,,,0.07 ± 0.01,1.0,,n.b.,n.b.
